Values quoted from earlier work in patent EP1964550A1, “Glucocorticoid-nitrooxyderivative compositions” (NicOx S.A., priority 2007, dated 2008).

System: irritant acute dermatitis
Settings: oedema formation and recruitment of leukocytes evaluated; compared with parent compound hydrocortisone

C[C@]12CCC(=O)C=C1CC[C@@H]1[C@@H]2[C@@H](O)C[C@@]2(C)[C@H]1CC[C@]2(O)C(=O)COC(=O)c1ccc(CO[N+](=O)[O-])cc1 [hydrocortisone 21-[4'-(nitrooxymethyl)benzoate]]
anti-inflammatory activity: higher anti-inflammatory activity than the parent compound hydrocortisone
